# Reference: patent publication US20170105407A1, “COMPOSITIONS AND METHODS FOR ENHANCING RED BLOOD CELL STORAGE TIME AND SURVIVABILITY USING NITRIC OXIDE RELEASING HYBRID HYDROGEL NANOPARTICLES” (ALBERT EINSTEIN COLLEGE OF MEDICINE, INC., priority 2014, published 2017)
# “Also recorded” adds a separate entry of the source.
# How the values were obtained:
# stored blood = test: Buildup of methemoglobin, plasma nitrite and plasma nitrate in stored blood over six weeks; format: cell-based; conditions: over a period of six weeks
# Description: In this example, the buildup of methemoglobin (MetHb), plasma nitrite and plasma nitrate was also measured over a period of six weeks. […] Nitrite levels were measured because higher nitrate levels are associated with positive RBC health and functionality. […] NO supplementation limits the progressive loss of nitrite and nitrate in RBCs, and such loss of nitrite and nitrate has been correlated with an increase in oxidative damage.
# stored RBCs [1] = test: Storage lesion parameters of stored RBCs over 42 days (2,3-DPG, potassium, pH, free hemoglobin, microparticles); format: cell-based, human, hamster, rat; conditions: for 2,3 DPG level during storage / Levels of free hemoglobin (hemolysis) during storage / Potassium levels during storage / pH (acidification) during storage: all species (human, hamster, rat), 42 days storage; for Microparticle formation in stored blood: human, hamster, rat blood
# Description: NO releasing nanoparticles were added to the blood at 10 mg per 125 mL of whole blood. Stored blood was treated with the nanoparticles once every 48 hours at the above described dosing over a period of 21 days for the in vivo transfusion studies. The storage lesion studies were extended to a period of 6 weeks.
# In this example, the procedure was substantially the same as Example 6.1, except that transfused blood was stored for 42 days, and included human, hamster, and rat blood. FIGS. 5(D)-(F) show potassium levels and hemolysis over a six week period.
# Human RBC units were purchased from the San Diego Blood bank. Blood were preserved in blood collection bags and kept at 4° C.
# Blood was obtained from donor rats (˜300 g) Animals were anaesthetized (pentobarbital 60 mg/kg ip) and a femoral catheter (PE-50) was implanted and blood was drawn into 10 mL syringes containing 1.5 mL of citrate, phosphate, dextrose adenine solution (CPDA-1). Blood was leukoreduced, by passing through a neonatal high efficiency leukocyte reduction filter Purecell NEO (Pall Company, East Hills, N.Y.). The leukoreduced blood was centrifuged for 10 minutes at 1350 rpm and supernatant was partially removed to achieve approximately 75% Hct. Packed cell were transferred under sterile conditions to a preservative free blood collection tube and kept at 4° C.
# Blood was obtained from donor hamsters (˜80 g). Hamsters were anaesthetized (pentobarbital 60 mg/kg ip) and femoral catheter implanted. The blood from three hamsters was drawn into 10 mL syringes containing 1.5 mL CPDA-1, then leukoreduced as described before and centrifuged. Hamster packed cells were preserved in blood collection tube and kept at 4° C.
# RBC = test: Mechanical properties (flexibility) of RBCs during storage; format: cell-based; conditions: at 1 week, 3 weeks, 5 weeks and 6 weeks of storage
# Text: In this example, as shown in FIGS. 16(A)-(D), RBC flexibility is slowed for RBCs treated with NOnps and GSNO.
# stored RBCs [2] = test: RBC glycolytic metabolism during storage over 42 days; format: cell-based; conditions: for ATP produced vs control / Adenine in stored blood vs control / Citrate in stored blood vs control / Glucose in stored blood vs control / Lactate produced vs control / Mannitol in stored blood vs control / Pyruvate produced vs control: over 42 days
# Description: In this example, the glyocotic metabolic mechanism was tested in stored blood. […] The main metabolic pathway of RBC is glycolysis and is primarily fueled by glucose. Glucose enters a RBC and is metabolized to produce ATP, and also pyruvate which in turn is converted to lactate. […] This pathway serves primarily to reduce nicotinamide adenine dinucleotide phosphate (NADPH). In conjunction with the glutathione reductase/peroxidase system, NADPH maintains the sulfhydryl groups of globin in their reduced state.
# In order to test RBC metabolism, four sets of stored RBCs were tested: RBCs treated with NO releasing nanoparticles (NOnp), RBCs treated with the S-nitrosothiol derivative of glutathione (GSNO), RBCs treated with NONOates (DTPANO), and a control group of RBCs that were not supplemented. GSNO, which due to its long half-life and ability to transnitrosate, has greater antimicrobial activity then NOnp alone against clinical isolates of gram positive and negative multi drug resistant pathogens. Given both the extended bioactive lifetime of GSNO compared to free NO and the potential differences in target tissues/cells and the success achieved with the NO releasing nanoparticle platform, it was undertaken to produce nanoparticles that were similar in character and structure, but with the capability of either releasing GSNO species or transferring NO via S-transnitrosation. FIGS. 8(A)-(D) show the behavior of various elements of the first step of the glycotic pathway over a period of 42 days. […] FIGS. 8(B)-(D) show the amount of adenine, mannitol, and citrate respectively. […] This is important because these components help RBCs resynthesize the energy carrier adenosine triphosphate (ATP). ATP is a key component in extending the shelf life of stored blood. FIGS. 9(A)-(D) depict the key components in the next step of the glycotic pathway, wherein ATP is created and pyruvate is produced and then converted to lactate. The longevity of stored blood increases as more ATP is produced and less pyruvate and lactate is produced. […] Overall, NOnp and GSNO treated RBC are much slower to lose initial metabolic markers of RBC health than both untreated RBCs and those treated with NONOates.
Glucose-6-phosphate dehydrogenase (G6PD) vs control (stored RBCs [2]; during storage),Glyceraldehyde 3-phosphate dehydrogenase (GAPDH) vs control (stored RBCs [2]; during storage),Hexokinase (HK) vs control (stored RBCs [2]; during storage),Phosphofructokinase (PFK) vs control (stored RBCs [2]; during storage),Pyruvate kinase (PK) vs control (stored RBCs [2]; during storage),Compound,Methemoglobin (MetHb) formation (stored blood),"2,3 DPG level during storage (stored RBCs [1])",Levels of free hemoglobin (hemolysis) during storage (stored RBCs [1]),Potassium levels during storage (stored RBCs [1]),pH (acidification) during storage (stored RBCs [1]),Microparticle formation in stored blood (stored RBCs [1]),RBC flexibility (RBC),ATP produced vs control (stored RBCs [2]),Adenine in stored blood vs control (stored RBCs [2]),Citrate in stored blood vs control (stored RBCs [2]),Glucose in stored blood vs control (stored RBCs [2]),Lactate produced vs control (stored RBCs [2]),Mannitol in stored blood vs control (stored RBCs [2]),Pyruvate produced vs control (stored RBCs [2])
–,–,–,–,–,NCCCN(CCCN)/[N+]([O-])=N/O [DPTANO],more met Hb formation; also recorded: increased the formation of met-hemoglobin,"prevented 2,3 DPG rapid decrease","either did not significantly differentiate from the control, or performed worse","either did not significantly differentiate from the control, or performed worse","either did not significantly differentiate from the control, or performed worse",faired similarly or worse than the control,did not vary substantially from that of untreated blood,only produces slightly less than the control,retained higher amounts of each component than the control,retained higher amounts of each component than the control,maintaining slightly higher amounts of glucose,the control produces much more pyruvate and lactate,retained higher amounts of each component than the control,the control produces much more pyruvate and lactate
maintained or even enhanced,maintained or even enhanced,maintained or even enhanced,maintained or even enhanced,maintained or even enhanced,"N[C@@H](CCC(=O)N[C@@H](CSN=O)C(=O)NCC(=O)O)C(=O)O [GSNO, S-nitrosothiol derivative of glutathione]",did not generate significantly more MetHb than the control,"prevented 2,3 DPG rapid decrease",did not increase the levels of free hemoglobin,slowed down potassium levels,prevented rapid acidification,reduced microparticle formation,remained more flexible than untreated and DPTANO treated blood,produce more ATP than the control,retained higher amounts of each component than the control,retained higher amounts of each component than the control,maintaining slightly higher amounts of glucose,the control produces much more pyruvate and lactate,retained higher amounts of each component than the control,the control produces much more pyruvate and lactate
